How the values were obtained:
human Factor XIa = human Factor XIa (Homo sapiens (Human), UniProt P03951); assay: Factor XIa Assay (fluorogenic substrate GPR-AFC); type: biochemical; details: Factor XIa (FXIa)
Human plasma kallikrein = Human plasma kallikrein (Homo sapiens (Human), UniProt P03952); assay: Kallikrein Assay (fluorogenic substrate Acetyl-K-P-R-AFC); type: biochemical; details: Plasma Kallikrein (PKal)
In short: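 Ki is derived from IC50 with the Cheng-Prusoff equation, and IC50 from the inflection point of a four-parameter logistic curve. The rate of AFC release is read with 0.5 nM purified enzyme and […] substrate at room temperature or 37 °C.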

human Factor XIa, sequence (P03951 388-625 limits assumed): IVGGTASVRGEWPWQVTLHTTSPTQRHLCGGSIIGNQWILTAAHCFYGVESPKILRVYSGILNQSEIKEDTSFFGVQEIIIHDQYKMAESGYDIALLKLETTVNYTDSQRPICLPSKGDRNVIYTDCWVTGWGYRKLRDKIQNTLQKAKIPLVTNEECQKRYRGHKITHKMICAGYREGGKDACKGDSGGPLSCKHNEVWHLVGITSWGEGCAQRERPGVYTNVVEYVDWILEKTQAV
human Factor XIa, sequence (P03951 19-387 partner limits assumed): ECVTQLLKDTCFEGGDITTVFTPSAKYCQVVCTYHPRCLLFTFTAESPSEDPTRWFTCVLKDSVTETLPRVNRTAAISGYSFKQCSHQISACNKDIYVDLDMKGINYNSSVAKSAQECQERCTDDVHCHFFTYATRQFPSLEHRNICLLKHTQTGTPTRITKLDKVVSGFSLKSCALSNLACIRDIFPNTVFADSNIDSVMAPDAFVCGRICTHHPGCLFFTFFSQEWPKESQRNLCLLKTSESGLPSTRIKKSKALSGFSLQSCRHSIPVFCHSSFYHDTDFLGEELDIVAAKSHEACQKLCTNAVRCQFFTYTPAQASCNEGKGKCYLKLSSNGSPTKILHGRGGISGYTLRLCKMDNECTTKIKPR
Human plasma kallikrein, sequence (P03952 391-638): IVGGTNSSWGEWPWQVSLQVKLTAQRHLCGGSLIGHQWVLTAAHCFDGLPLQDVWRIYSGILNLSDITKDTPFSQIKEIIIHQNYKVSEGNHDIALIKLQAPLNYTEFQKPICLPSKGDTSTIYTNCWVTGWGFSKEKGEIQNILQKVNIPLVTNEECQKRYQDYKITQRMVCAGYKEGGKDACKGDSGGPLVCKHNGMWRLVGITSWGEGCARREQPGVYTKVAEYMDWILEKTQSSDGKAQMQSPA
Human plasma kallikrein, sequence (P03952 20-390 partner): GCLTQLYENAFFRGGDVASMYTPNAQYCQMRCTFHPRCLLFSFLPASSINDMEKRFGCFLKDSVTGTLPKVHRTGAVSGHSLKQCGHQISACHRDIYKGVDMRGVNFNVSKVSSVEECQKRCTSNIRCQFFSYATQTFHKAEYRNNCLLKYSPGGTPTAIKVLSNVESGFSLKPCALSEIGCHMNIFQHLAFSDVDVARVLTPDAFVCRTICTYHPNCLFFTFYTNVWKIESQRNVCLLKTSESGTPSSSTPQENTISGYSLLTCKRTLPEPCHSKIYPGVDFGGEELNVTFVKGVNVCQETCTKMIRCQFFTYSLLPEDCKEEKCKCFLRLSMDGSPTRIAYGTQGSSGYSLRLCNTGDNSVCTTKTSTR

`Cc1ncc(-c2c(C(F)F)ccc(Cl)c2F)nc1C(=O)Nc1cnn(C(C)c2ncc(N3C[C@H]4C[C@H]4C3=O)cc2Cl)c1` (single isomer, unassigned) [Example 147, N-(1-((R or S)-1-(3-Chloro-5-((1R,5S)-2-oxo-3-azabicyclo[3.1.0]hexan-3-yl)pyridin-2-yl)ethyl)-1H-pyrazol-4-yl)-6-(3-chloro-6-(difluoromethyl)-2-fluorophenyl)-3-methylpyrazine-2-carboxamide] showed an IC50 (human Factor XIa) of 7300 nM and an IC50 (Human plasma kallikrein) of 2.9 nM.
Compound `Cc1cc(C(C)n2cc(NC(=O)c3nc(-c4c(C#N)ccc(Cl)c4F)cnc3C)cn2)cnc1N1C[C@H]2C[C@H]2C1=O` (single isomer, unassigned) [Example 140, 6-(3-Chloro-6-cyano-2-fluorophenyl)-3-methyl-N-(1-((R or S)-1-(5-methyl-6-((IR,5S)-2-oxo-3-azabicyclo[3.1.0]hexan-3-yl)pyridin-3-yl)ethyl)-1H-pyrazol-4-yl)pyrazine-2-carboxamide] has an IC50 (human Factor XIa) of 972 nM and an IC50 (Human plasma kallikrein) of 0.6 nM.
`CC(c1cnc(N2CC3CC3C2=O)nc1)n1cc(NC(=O)c2cncc(-c3c(C(F)(F)F)ccc(Cl)c3F)n2)cn1` (single isomer, unassigned) [Example 70, 6-(3-Chloro-2-fluoro-6-(trifluoromethyl)phenyl)-N-(1-((S orR)-1-(2-((1R,5S or 1S,5R)-2-oxo-3-azabicyclo[3.1.0]hexan-3-yl)pyrimidin-5-yl)ethyl)-1H-pyrazol-4-yl)pyrazine-2-carboxamide] was tested, and the IC50 (human Factor XIa) was 7680 nM and the IC50 (Human plasma kallikrein) was 18.6 nM.
`[2H]C1([2H])C2CC2C(=O)N1c1ncc([C@H](C)n2cc(NC(=O)c3nc(-c4c(C(F)F)ccc(Cl)c4F)cnc3C)cn2)c(C)n1` (single isomer, unassigned) [Example 179, 6-(3-Chloro-6-(difluoromethyl)-2-fluorophenyl)-3-methyl-N-(1-((S)-1-(4-methyl-2-((1S,5R or 1R,5S)-2-oxo-3-azabicyclo[3.1.0]hexan-3-yl-4,4-d2)pyrimidin-5-yl)ethyl)-1H-pyrazol-4-yl)pyrazine-2-carboxamide] showed an IC50 (human Factor XIa) of 1820 nM and an IC50 (Human plasma kallikrein) of 0.7 nM.
Work on `CC(c1cnc(N2C[C@H]3C[C@H]3C2=S)nc1)n1cc(NC(=O)c2cncc(-c3c(C(F)F)ccc(Cl)c3F)n2)cn1` (single isomer, unassigned) [Example 31, 6-(3-Chloro-6-(difluoromethyl)-2-fluorophenyl)-N-(1-((S or R)-1-(2-((1R,5S)-2-thioxo-3-azabicyclo[3.1.0]hexan-3-yl)pyrimidin-5-yl)ethyl)-1H-pyrazol-4-yl)pyrazine-2-carboxamide] yielded an IC50 (human Factor XIa) greater than 10000 nM and an IC50 (Human plasma kallikrein) of 6.3 nM.
`Cc1cc(N2C[C@H]3C[C@H]3C2=O)ncc1Cn1cc(NC(=O)c2cncc(-c3c(C(F)F)ccc(Cl)c3F)n2)cn1` [Example 57, 6-(3-Chloro-6-(difluoromethyl)-2-fluorophenyl)-N-(1-((4-methyl-6-((1R,5S)-2-oxo-3-azabicyclo[3.1.0]hexan-3-yl)pyridin-3-yl)methyl)-1H-pyrazol-4-yl)pyrazine-2-carboxamide] showed an IC50 (human Factor XIa) of 1890 nM and an IC50 (Human plasma kallikrein) of 4.9 nM.
Compound `COc1cc(Cn2cc(NC(=O)c3cncc(-c4c(C(F)F)ccc(Cl)c4F)n3)cn2)cnc1N1C[C@H]2C[C@H]2C1=O` [Example 49, 6-(3-Chloro-6-(difluoromethyl)-2-fluorophenyl)-N-(1-((5-methoxy-6-((1R,5S)-2-oxo-3-azabicyclo[3.1.0]hexan-3-yl)pyridin-3-yl)methyl)-1H-pyrazol-4-yl)pyrazine-2-carboxamide] has an IC50 (human Factor XIa) of 423 nM and an IC50 (Human plasma kallikrein) of 3.5 nM.
For `Cc1cc(N2C[C@H]3C[C@H]3C2=O)ccc1C(C)n1cc(NC(=O)c2cncc(-c3c(C(F)F)ccc(Cl)c3F)n2)cn1` (single isomer, unassigned) [Example 98, 6-(3-Chloro-6-(difluoromethyl)-2-fluorophenyl)-N-(1-((S or R)-1-(2-methyl-4-((1R,5S)-2-oxo-3-azabicyclo[3.1.0]hexan-3-yl)phenyl)ethyl)-1H-pyrazol-4-yl)pyrazine-2-carboxamide], the IC50 (human Factor XIa) was greater than 10000 nM and the IC50 (Human plasma kallikrein) was 1.4 nM.
`Cc1ncc(-c2c(C(F)F)ccc(Cl)c2F)nc1C(=O)Nc1cnn(C(C)c2ncc(N3C[C@H]4C[C@H]4C3=O)cn2)c1` (single isomer, unassigned) [Example 6, 6-(3-Chloro-6-(difluoromethyl)-2-fluorophenyl)-3-methyl-N-(1-((R or S)-1-(5-((1R,5S)-2-oxo-3-azabicyclo[3.1.0]hexan-3-yl)pyrimidin-2-yl)ethyl)-1H-pyrazol-4-yl)pyrazine-2-carboxamide] was tested, and the IC50 (human Factor XIa) was greater than 10000 nM and the IC50 (Human plasma kallikrein) was 0.9 nM.
`Cc1ncc(-c2c(C(F)F)ccc(Cl)c2F)nc1C(=O)Nc1cnn([C@@H](C)c2cnc(N3C[C@H]4C[C@H]4C3=O)c(N)c2)c1` [Example 189] gave an IC50 (human Factor XIa) of 667 nM and an IC50 (Human plasma kallikrein) of 1.3 nM.
Compound `Cc1ncc(-c2c(C(F)F)ccc(Cl)c2F)nc1C(=O)Nc1cnn(C(CO)c2ccc(N3CC4CC4C3=O)nc2)c1` (single isomer, unassigned) [Example 162, 6-(3-chloro-6-(difluoromethyl)-2-fluorophenyl)-N-(1-((S or R)-2-hydroxy-1-(6-((1S,5R or 1R,5S)-2-oxo-3-azabicyclo[3.1.0]hexan-3-yl)pyridin-3-yl)ethyl)-1H-pyrazol-4-yl)-3-methylpyrazine-2-carboxamide] has an IC50 (human Factor XIa) of 3450 nM and an IC50 (Human plasma kallikrein) of 8.7 nM.
With `C[C@@H](c1cnc(N2C[C@H]3C[C@H]3C2=O)nc1)n1cc(NC(=O)c2nc(-c3c(C(F)F)ccc(Cl)c3F)cnc2C(F)F)cn1` [Example 174, 6-(3-Chloro-6-(difluoromethyl)-2-fluorophenyl)-3-(difluoromethyl)-N-(1-((S)-1-(2-((1R,5S)-2-oxo-3-azabicyclo[3.1.0]hexan-3-yl)pyrimidin-5-yl)ethyl)-1H-pyrazol-4-yl)pyrazine-2-carboxamide] the IC50 (human Factor XIa) was 9350 nM and the IC50 (Human plasma kallikrein) was 6.5 nM.
Work on `Cc1ncc(-c2c(C(F)F)ccc(Cl)c2F)nc1C(=O)Nc1cnn(C(C)c2cnc(N3C[C@H]4C[C@H]4C3=O)c(F)c2C)c1` (single isomer, unassigned) [Example 127, 6-(3-Chloro-6-(difluoromethyl)-2-fluorophenyl)-N-(1-((S or i)-1-(5-fluoro-4-methyl-6-((1R,5S)-2-oxo-3-azabicyclo[3.1.0]hexan-3-yl)pyridin-3-yl)ethyl)-1H-pyrazol-4-yl)-3-methylpyrazine-2-carboxamide] yielded an IC50 (human Factor XIa) of 596 nM and an IC50 (Human plasma kallikrein) of 0.5 nM.
In the case of `Cc1cc(C(C)n2cc(NC(=O)c3nc(-c4c(C#N)ccc(Cl)c4F)cnc3C)cn2)nnc1N1C[C@H]2C[C@H]2C1=O` (single isomer, unassigned) [Example 237, 6-(3-Chloro-6-cyano-2-fluorophenyl)-3-methyl-N-(1-((S or R)-1-(5-methyl-6-((1R,5S)-2-oxo-3-azabicyclo[3.1.0]hexan-3-yl)pyridazin-3-yl)ethyl)-1H-pyrazol-4-yl)pyrazine-2-carboxamide], the IC50 (human Factor XIa) is reported as 561 nM and the IC50 (Human plasma kallikrein) is reported as 4.3 nM.
`C[C@@H](c1cnc(N2C[C@H]3C[C@H]3C2=O)nc1)n1cc(NC(=O)c2nc(-c3c(C(F)F)ccc(Cl)c3F)cnc2CO)cn1` [Example 193] was tested, and the IC50 (human Factor XIa) was 441 nM and the IC50 (Human plasma kallikrein) was 0.4 nM.
Compound `CC(c1ncc(N2C[C@H]3C[C@H]3C2=O)cn1)n1cc(NC(=O)c2cncc(-c3c(C(F)F)ccc(Cl)c3F)n2)cn1` (single isomer, unassigned) [Example 5, 6-(3-Chloro-6-(difluoromethyl)-2-fluorophenyl)-N-(1-((S or R)-1-(5-((1R,5S)-2-oxo-3-azabicyclo[3.1.0]hexan-3-yl)pyrimidin-2-yl)ethyl)-1H-pyrazol-4-yl)pyrazine-2-carboxamide] has an IC50 (human Factor XIa) greater than 10000 nM and an IC50 (Human plasma kallikrein) of 17.2 nM.
